From patent US12071424B2, “IRE1 small molecule inhibitors” (Cornell University, priority 2017, dated 2024)

How the values were obtained:
[1] = system: IRE1a-dependent XBP1 splicing; experiment: Inhibition of IRE1a-dependent XBP1 splicing in mice with metastatic ovarian cancer; format: in vivo, mouse; settings: single oral dose 45 mg/kg, 24 hours, FACS-isolated ascites cells
Experimental: Mice (n=3) with established metastatic ovarian cancer were orally gavaged with 45 mg/kg vehicle control or inhibitor dissolved in H2O. The Inhibitor was Compound C. Compound C is 2-chloro-N-(5-(2-(((1r,4r)-4-dimethylamino)cyclohexyl)amino)-8-ethylquinazolin-6-yl)-6-methylpyridin-2-yl)benzenesulfonamide, Compound 91, described herein. After 24 hours, mice were euthanized, ascites-resident cells were extracted and tumor cells, dendritic cells (DCs), and CD4+ T cells were isolated by FACS. The samples were used for subsequent if RT-qPCR analysis of beta-actin, XBP1s and total XBP1. Gene expression was evaluated by quantitative PCR for XBP1s and total XBP1 transcripts using the 2^(−ΔCT) method for calculating normalized gene expression. Gene expression levels were normalized to Actb transcripts. XBP1 splicing is calculated as XBP1s expression divided by total XBP1 expression. A single oral dose of Compound C suppressed IRE1a-dependent XBP1 splicing in tumor cells and relevant immune cells in vivo over 24 hours, FIG. 7.
Mice (n=3) with established metastatic ovarian cancer were orally gavaged with 45 mg/kg vehicle control or inhibitor dissolved in H2O. […] Gene expression was evaluated by quantitative PCR for XBP1s and total XBP1 transcripts using the 2^(−ΔCT) method for calculating normalized gene expression. […] XBP1 splicing is calculated as XBP1s expression divided by total XBP1 expression. […]

IRE1a [2] = experiment: IRE1a phosphorylation inhibition assay (immunoblot, 293T cells, tunicamycin); format: cell-based, human
Experimental: Inhibition of ER stress-induced IRE1a phosphorylation and XBP1s protein accumulation in human 293T cells assessed. Immunoblot analysis was performed in human 293T cells lysates obtained from cells after exposure to the chemical ER stress-inducing agent tunicamycin, and optional treatment with Compound C. Lysates were probed with antibodies recognizing IRE1a, phosphorylated IRE1a, XBP1, or TATA-binding protein (TBP). (TBP) was blotted as a protein loading control. […] See FIG. 8, 20 nM was sufficient to reduce XBP1s protein levels below the limit of detection in this assay.

[3] = system: IRE1a-mediated XBP1 splicing; experiment: Target engagement in pancreas and salivary gland (RT-qPCR XBP1 splicing); format: in vivo; settings: mouse, 30 mg/kg oral gavage, 6 hours; compared to control and Compound B
Experimental: Mice (n=3 per group) were orally gavaged with 30 mg/kg vehicle control or IRE1 inhibitors dissolved in H2O. After 6 hours, mice were euthanized and pancreas and salivary gland tissues were isolated, snap frozen on dry ice, and used for subsequent RT-qPCR analysis of beta-actin, XBP1s and total XBP1. Gene expression was evaluated by quantitative PCR for XBP1s and total XBP1 transcripts using the 2^(−ΔCT) method for calculating normalized gene expression. Gene expression levels were normalized to Actb transcripts. XBP1 splicing is calculated as XBP1s expression divided by total XBP1 expression.

IRE1a/XBP1 pathway = experiment: Inhibition of endogenous XBP1 splicing in 293T cells with tunicamycin; format: cell-based, human
Experimental: Gene expression was evaluated by quantitative PCR for XBP1s and total XBP1 transcripts using the 2^(−ΔCT) method for calculating normalized gene expression. Gene expression levels were normalized to ACTB transcripts. XBP1 splicing was calculated as actin-normalized XBP1s expression divided by actin-normalized total XBP1 expression.

[4] = Metabolic assays of N,N-dimethyl compounds; format: in vitro ADME; settings: data not shown
IRE1a [5] = experiment: IRE1a Endoribonuclease Nanoluciferase Assay (XBP1 luciferase reporter in 293T cells); format: cell-based, human; settings: Homo sapiens, HEK-293T, ER stressor, tested as Formic Acid Salt (37: HCl Salt)
Procedure, shortened: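 293T cells transiently transfected with a PGK-Luc2-P2A-XBP1u-Nanoluciferase-Pest reporter, replated after 6 h, then treated next day with ER stressors ± inhibitors. After lysis, firefly luminescence then nanoluciferase luminescence read sequentially (1000 ms integration each).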

in vivo = settings: mouse, po, 30 mg/kg
IRE1a [6] = target: T1, IRE1a (Homo sapiens, UniProt O75460); experiment: In vitro FRET assay (IRE1a cleavage of XBP1 RNA probe); format: biochemical; settings: 2 nM SignalChem IRE1a, tested as Formic Acid Salt (37: HCl Salt)
T1 construct: purchased SignalChem
Procedure, shortened: Human

hERG channel = target: T2, hERG channel (Homo sapiens, UniProt Q12809); experiment: hERG potassium ion channel automated planar clamp (QPatch) in stable CHO cell line; format: cell-based; settings: Formic Acid Salt (37: HCl Salt), read-out: hERG channel blockade Mean IC50
T2 construct: expressed in transfected cells
Experimental: Blockade of the cardiac ion channel coded by the hERG gene can lead to cardiac arrhythmia. […] To determine the viability of the compounds disclosed herein as pharmacological agents that would not affect the hERG channel blockade, a standard automated planar clamp method was employed to determine the IC50 for various test compounds on their inhibition of the channel. An electrophysiological assay was prepared to measure the electric current passing through the hERG channel expressed in a stable CHO cell line by applying the planar clamp method. This assay was performed using the automated QPatch platform (Sophion, Denmark) which allows fast and accurate electrophysiological characterization of the hERG ion channel and the determination of IC50 values for the test compounds, as shown in Table 9.

293T cells = experiment: Growth assay (cytotoxicity); format: cell-based, human; settings: Formic Acid Salt (37: HCl Salt); for viability at 0.185 µM / viability at 0.5556 µM / viability at 1.667 µM / viability at 5 µM: Homo sapiens, HEK-293T
Experimental: A growth assay was performed to evaluate the compounds disclosed herein for cytotoxicity. Briefly, 5,000,000 293T cells were resuspended in 18 mL of cDMEM for a final concentration of […]. […] In a separate 96 well dilution plate, 199 uL cDMEM and 1 uL of DMSO or any one of the compounds disclosed herein (shown as Test Compound 1, 2, 3, 4, 5, or 6 below) were added to wells A4, A8, C4, C8, E4, E8, G4, and G8, 133.3 uL cDMEM was added to wells 1, 2, 3, 5, 6, and 7 in rows A, C, E and G of the dilution plate. Compounds were serially diluted leftwards in threefold dilutions (66.7 uL into 133.3 uL cDMEM). 20 uL of each dilution was transferred in duplicate (duplicates in vertical paired wells) to the cells plated in the 96-well plate shown in Table 5, to the total concentrations shown below. 200 uL cDMEM was addled to media wells (wells G5-H8). The plate was then placed in a humidified chamber for a […], and then photographed (media was more yellow in wells with potent cell growth). Absorbance was then measured at ˜[…] (lower for more acidic media) and ˜450 nM (higher for more acidic media).

[7] = Bioavailability assay (pharmacokinetic study); settings: mouse; IV 1 mg/kg, PO 30 mg/kg (Compound A PO 10 mg/kg)

T2 sequence (Q12809 whole entry): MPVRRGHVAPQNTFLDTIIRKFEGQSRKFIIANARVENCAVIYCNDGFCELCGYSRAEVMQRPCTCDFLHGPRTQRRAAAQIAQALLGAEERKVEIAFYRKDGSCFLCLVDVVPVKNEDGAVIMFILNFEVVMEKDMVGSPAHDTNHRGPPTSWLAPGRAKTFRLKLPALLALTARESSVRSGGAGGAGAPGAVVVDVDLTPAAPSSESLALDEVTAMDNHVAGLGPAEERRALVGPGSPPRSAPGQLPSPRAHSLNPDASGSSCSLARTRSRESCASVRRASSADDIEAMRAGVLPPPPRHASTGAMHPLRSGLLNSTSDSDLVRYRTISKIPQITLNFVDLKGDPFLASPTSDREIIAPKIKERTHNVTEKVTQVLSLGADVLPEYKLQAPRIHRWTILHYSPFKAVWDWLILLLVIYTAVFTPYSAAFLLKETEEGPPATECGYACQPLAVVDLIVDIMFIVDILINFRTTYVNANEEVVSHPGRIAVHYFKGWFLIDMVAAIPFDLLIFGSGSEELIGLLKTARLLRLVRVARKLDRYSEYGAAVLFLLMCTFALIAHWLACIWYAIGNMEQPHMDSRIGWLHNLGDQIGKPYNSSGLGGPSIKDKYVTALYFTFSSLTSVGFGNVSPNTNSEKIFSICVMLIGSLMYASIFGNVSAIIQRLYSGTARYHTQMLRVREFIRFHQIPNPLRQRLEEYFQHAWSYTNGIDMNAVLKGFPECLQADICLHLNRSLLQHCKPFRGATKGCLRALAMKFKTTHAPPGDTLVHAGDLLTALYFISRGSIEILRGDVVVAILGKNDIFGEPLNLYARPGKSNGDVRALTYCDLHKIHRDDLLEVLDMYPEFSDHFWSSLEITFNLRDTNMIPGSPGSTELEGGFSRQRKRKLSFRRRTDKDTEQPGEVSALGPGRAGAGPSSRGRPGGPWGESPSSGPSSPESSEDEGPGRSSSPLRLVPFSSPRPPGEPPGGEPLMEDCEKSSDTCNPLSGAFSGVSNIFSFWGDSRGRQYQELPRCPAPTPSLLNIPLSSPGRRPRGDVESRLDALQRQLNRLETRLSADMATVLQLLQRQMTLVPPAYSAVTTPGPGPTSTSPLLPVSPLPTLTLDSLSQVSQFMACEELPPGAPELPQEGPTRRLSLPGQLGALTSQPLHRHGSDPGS
T1 sequence (O75460 19-977): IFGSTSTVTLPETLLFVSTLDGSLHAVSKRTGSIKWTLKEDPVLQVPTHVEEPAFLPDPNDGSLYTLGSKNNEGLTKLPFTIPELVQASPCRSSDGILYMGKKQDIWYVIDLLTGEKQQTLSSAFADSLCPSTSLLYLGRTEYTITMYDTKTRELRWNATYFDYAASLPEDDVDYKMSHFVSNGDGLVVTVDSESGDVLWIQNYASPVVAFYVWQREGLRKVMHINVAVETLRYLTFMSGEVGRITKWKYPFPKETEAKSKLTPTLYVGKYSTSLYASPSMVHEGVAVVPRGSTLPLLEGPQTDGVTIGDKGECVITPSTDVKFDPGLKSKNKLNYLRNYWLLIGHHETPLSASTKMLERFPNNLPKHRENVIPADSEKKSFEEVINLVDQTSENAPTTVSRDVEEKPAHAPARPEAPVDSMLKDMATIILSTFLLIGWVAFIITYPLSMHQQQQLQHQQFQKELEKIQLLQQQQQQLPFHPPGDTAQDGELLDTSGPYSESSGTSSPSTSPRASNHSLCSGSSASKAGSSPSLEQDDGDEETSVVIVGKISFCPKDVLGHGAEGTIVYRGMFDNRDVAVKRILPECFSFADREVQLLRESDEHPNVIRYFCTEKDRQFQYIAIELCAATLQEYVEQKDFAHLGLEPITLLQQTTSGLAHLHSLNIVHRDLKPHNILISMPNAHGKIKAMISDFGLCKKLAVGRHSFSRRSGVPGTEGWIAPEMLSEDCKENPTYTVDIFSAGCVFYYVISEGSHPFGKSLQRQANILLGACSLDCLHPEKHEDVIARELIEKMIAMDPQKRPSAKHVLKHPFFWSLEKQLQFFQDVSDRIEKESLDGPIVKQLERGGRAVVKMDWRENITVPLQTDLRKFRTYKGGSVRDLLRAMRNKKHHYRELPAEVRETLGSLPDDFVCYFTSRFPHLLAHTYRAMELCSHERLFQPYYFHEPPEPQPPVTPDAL

Structure (SMILES)	EC50 (IRE1a [5])	IC50 (IRE1a [6])	IC50 (hERG channel)	viability at 0.185 µM (293T cells)	viability at 0.5556 µM (293T cells; 0.5556 uM)	viability at 1.667 µM (293T cells; 1.667 uM)	viability at 5 µM (293T cells; 5 uM)	also measured
CCc1cc(-c2ccc(NS(=O)(=O)c3ccccc3Cl)nc2C)cc2cnc(N[C@H]3CC[C@H](N(C)C)CC3)nc12 [Compound C]								IRE1a-dependent XBP1 splicing in tumor cells and immune cells in vivo [1]: suppressed; concentration sufficient to reduce XBP1s protein levels below the limit of detection (IRE1a [2]): 20 nM; IRE1a phosphorylation (IRE1a [2]; pre-incubation with compound): strongly repressed; accumulation of XBP1s protein (IRE1a [2]; pre-incubation with compound): completely abrogated; IRE1a-mediated XBP1 splicing in pancreas and salivary gland [3]: potently suppressed; shift in potency between Compound A and Compound C (IRE1a/XBP1 pathway): approximately 3.6 ×; metabolism [4]: removal of the methyl groups
CCc1cc(-c2ccc(NS(=O)(=O)c3ccccc3Cl)nc2C)cc2cnc(N[C@H]3CC[C@H](N(C)C)CC3)nc12 [Compound 91, 2-chloro-N-(5-(2-(((1r,4r)-4-(dimethylamino)cyclohexyl)amino)-8-ethylquinazolin-6-yl)-6-methylpyridin-2-yl)benzenesulfonamide]	≤ 5 nM							bioavailability (in vivo): 66%
CCc1cc(-c2ccc(NS(=O)(=O)c3ccccc3Cl)c(F)c2)cc2cnc(N[C@H]3CC[C@H](N)CC3)nc12 [Compound 24, N-(4-(2-(((1r,4r)-4-aminocyclohexyl)amino)-8-ethylquinazolin-6-yl)-2-fluorophenyl)-2-chlorobenzene-sulfonamide]	≤ 5 nM	≤ 5 nM	1000 to 10000 nM	75 to 100%	75 to 100%	50 to 75%	50 to 75%	
CCc1cc(-c2ccc(NS(=O)(=O)c3ccccc3Cl)nc2C)cc2cnc(N[C@H]3CC[C@H](N)CC3)nc12 [Compound A, N-(5-(2-(((1r,4r)-4-aminocyclohexyl)amino)-8-ethylquinazolin-6-yl)-6-methylpyridin-2-yl)-2-chlorobenzenesulfonamide]								oral bioavailability [7]: 4%
CCc1cc(-c2ccc(NS(=O)(=O)c3ccccc3Cl)nc2OC)cc2cnc(N[C@H]3CC[C@H](N)CC3)nc12 [Compound 37, N-(5-(2-(((1r,4r)-4-aminocyclohexyl)amino)-8-ethylquinazolin-6-yl)-6-methoxypyridin-2-yl)-2-chlorobenzene-sulfonamide]	≤ 5 nM	≤ 5 nM	10000 to 50000 nM					% Growth at 0.5556 uM (293T cells; 0.5556 uM): D (D: >75% to ≤100%); % Growth at 1.667 uM (293T cells; 1.667 uM): C (C: >50% to ≤75%); % Growth at 5 uM (293T cells; 5 uM): B (B: >25% to ≤50%); bioavailability (in vivo): 17%
CCc1cc(-c2ccc(NS(=O)(=O)c3ccccc3Cl)nc2OC)cc2cnc(N[C@H]3CC[C@H](N(C)C)CC3)nc12 [Compound D]								IRE1a-dependent XBP1 splicing in tumor cells and immune cells in vivo [1]: suppressed; IRE1a-mediated XBP1 splicing in pancreas and salivary gland [3]: potently suppressed; metabolism [4]: removal of the methyl groups
CCc1cc(-c2ccc(NS(=O)(=O)c3ccccc3Cl)c(F)c2)cc2cnc(N[C@H]3CC[C@H](N(C)C)CC3)nc12 [Compound 69, 2-chloro-N-(4-(2-(((1r,4r)-4-(dimethylamino)cyclohexyl)amino)-8-ethylquinazolin-6-yl)-2-fluorophenyl) benzene-sulfonamide]	≤ 5 nM	≤ 5 nM	10000 to 50000 nM		75 to 100%	50 to 75%	50 to 75%	
CCc1cc(-c2cc(NS(=O)(=O)c3ccccc3Cl)n[nH]2)cc2cnc(N[C@H]3CC[C@H](N)CC3)nc12 [Compound 29, N-(5-(2-(((1r,4r)-4-aminocyclohexyl)amino)-8-ethylquinazolin-6-yl)-1H-pyrazol-3-yl)-2-chlorobenzene-sulfonamide]	100 to 10000 nM	≤ 5 nM		75 to 100%	75 to 100%	75 to 100%	75 to 100%	
CCc1cc(-c2ccc(NS(=O)(=O)c3ccccc3Cl)cn2)cc2cnc(N[C@H]3CC[C@H](N)CC3)nc12 [Compound 28]	≤ 5 nM	≤ 5 nM		75 to 100%	75 to 100%	50 to 75%	25 to 50%	
CCc1cc(-c2ccc(NS(=O)(=O)c3ccccc3Cl)c(F)c2C)cc2cnc(N[C@H]3CC[C@H](N)CC3)nc12 [Compound 71, N-(4-(2-(((1r,4r)-4-aminocyclohexyl)amino)-8-ethylquinazolin-6-yl)-2-fluoro-3-methylphenyl)-2-chlorobenzene-sulfonamide]	≤ 5 nM	≤ 5 nM		75 to 100%	75 to 100%	50 to 75%	25 to 50%	
